Source: ChEMBL document CHEMBL4177694, “Discovery of the first low-shift positive allosteric modulators for the muscarinic M1 receptor” (Bioorg Med Chem Lett, 2017)
Calls of active or inactive are those of the source. The rule behind the calls is not given here.

Assays:
[1] = target: T1, Muscarinic acetylcholine receptor M1 (Homo sapiens, UniProt P11229); test: (§1) Positive allosteric modulation of human wild type M1 receptor assessed as increase in acetylcholine-induced calcium flux by FLIPR assay; format: functional
T1 sequence (P11229 whole entry): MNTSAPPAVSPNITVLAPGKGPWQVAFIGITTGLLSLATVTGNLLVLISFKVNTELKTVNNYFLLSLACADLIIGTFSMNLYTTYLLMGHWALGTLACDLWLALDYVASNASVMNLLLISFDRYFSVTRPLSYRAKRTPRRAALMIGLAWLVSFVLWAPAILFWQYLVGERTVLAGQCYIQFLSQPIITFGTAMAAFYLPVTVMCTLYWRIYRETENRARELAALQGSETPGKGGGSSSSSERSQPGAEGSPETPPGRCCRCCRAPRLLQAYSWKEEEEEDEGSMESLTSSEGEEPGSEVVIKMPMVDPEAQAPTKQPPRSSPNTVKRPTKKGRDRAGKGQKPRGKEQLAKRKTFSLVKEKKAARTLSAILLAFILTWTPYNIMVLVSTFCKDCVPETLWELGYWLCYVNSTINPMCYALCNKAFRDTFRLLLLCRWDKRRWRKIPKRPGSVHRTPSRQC

[2] = target: T2, Muscarinic acetylcholine receptor M1 (Homo sapiens) (UniProt P11229); test: Positive allosteric modulation of human wild type M1 receptor assessed as increase in acetylcholine-induced calcium flux by FLIPR assay relative to acetylcholine; format: functional
T2 sequence (whole entry): T1 sequence (P11229 whole entry)

[3] = Displacement of [3H]-Ro 15-1788 from rat brain synaptosomal membranes GABA receptor after 90 mins
[4] = Activity at P-gp (unknown origin); format: ADME; settings: human
Cytochrome P450 3A4 = Cytochrome P450 3A4 (Homo sapiens, UniProt P08684); test: Inhibition of CYP3A4 (unknown origin); format: ADME
[5] = Stability in human microsomes; format: ADME, Microsome
[6] = Stability in mouse microsomes; format: ADME, Microsome
[7] = Drug metabolism in rat microsomes assessed as amide formation; format: ADME, Microsome
[8] = target: T2, Muscarinic acetylcholine receptor M1 (Homo sapiens); test: as §1; format: functional
[9] = target: GABA-A receptor; alpha-1/beta-2/gamma-2 (Homo sapiens, UniProt P14867+P18507+P47870); test: […] human GABA-A receptor alpha1beta2gamma2 expressed in HEK293 cells by electrophysiology assay; format: cell-based
[10] = target: GABA-A receptor; alpha-1/beta-2/gamma-2 (Rattus norvegicus, UniProt P18508+P62813+P63138); test: […] rat GABA-A receptor alpha1beta2gamma2 expressed in HEK293 cells by electrophysiology assay; format: cell-based
[11] = target: GABA-A receptor; alpha-2/beta-3/gamma-2 (Homo sapiens, UniProt P18507+P28472+P47869); test: […] human GABA-A receptor alpha2beta3gamma2 expressed in HEK293 cells by electrophysiology assay; format: cell-based
[12] = target: Gamma-aminobutyric acid receptor subunit alpha-2/beta-3/gamma-2 (Rattus norvegicus, UniProt P18508+P23576+P63079); test: […] rat GABA-A receptor alpha2beta3gamma2 expressed in HEK293 cells by electrophysiology assay; format: cell-based
[13] = target: GABA-A receptor; alpha-3/beta-3/gamma-2 (Homo sapiens, UniProt P18507+P28472+P34903); test: […] human GABA-A receptor alpha3beta3gamma2 expressed in HEK293 cells by electrophysiology assay; format: cell-based
[14] = target: Gamma-aminobutyric acid receptor subunit alpha-3/beta-3/gamma-2 (Rattus norvegicus, UniProt P18508+P20236+P63079); test: […] rat GABA-A receptor alpha3beta3gamma2 expressed in HEK293 cells by electrophysiology assay; format: cell-based
[15] = target: GABA-A receptor; alpha-5/beta-3/gamma-2 (Homo sapiens, UniProt P18507+P28472+P31644); test: […] human GABA-A receptor alpha5beta3gamma2 expressed in HEK293 cells by electrophysiology assay; format: cell-based
[16] = target: GABA A receptor alpha-5/beta-3/gamma-2 (Rattus norvegicus, UniProt P18508+P19969+P63079); test: […] rat GABA-A receptor alpha5beta3gamma2 expressed in HEK293 cells by electrophysiology assay; format: cell-based
GABA A receptor alpha-5/beta-3/gamma-2, sequence (P18508 whole entry): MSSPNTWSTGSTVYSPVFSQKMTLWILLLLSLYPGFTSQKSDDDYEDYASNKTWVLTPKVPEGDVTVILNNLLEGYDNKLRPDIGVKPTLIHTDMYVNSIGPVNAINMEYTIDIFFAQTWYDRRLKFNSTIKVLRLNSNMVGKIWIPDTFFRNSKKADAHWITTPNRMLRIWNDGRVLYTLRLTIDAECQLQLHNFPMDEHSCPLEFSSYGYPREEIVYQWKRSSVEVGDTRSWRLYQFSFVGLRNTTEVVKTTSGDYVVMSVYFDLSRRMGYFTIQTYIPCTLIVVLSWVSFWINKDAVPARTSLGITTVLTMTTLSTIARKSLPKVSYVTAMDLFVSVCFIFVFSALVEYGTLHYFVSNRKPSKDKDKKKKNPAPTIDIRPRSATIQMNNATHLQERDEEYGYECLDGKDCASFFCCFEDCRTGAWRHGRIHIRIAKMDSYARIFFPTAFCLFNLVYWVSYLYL
GABA A receptor alpha-5/beta-3/gamma-2, sequence (P19969 whole entry): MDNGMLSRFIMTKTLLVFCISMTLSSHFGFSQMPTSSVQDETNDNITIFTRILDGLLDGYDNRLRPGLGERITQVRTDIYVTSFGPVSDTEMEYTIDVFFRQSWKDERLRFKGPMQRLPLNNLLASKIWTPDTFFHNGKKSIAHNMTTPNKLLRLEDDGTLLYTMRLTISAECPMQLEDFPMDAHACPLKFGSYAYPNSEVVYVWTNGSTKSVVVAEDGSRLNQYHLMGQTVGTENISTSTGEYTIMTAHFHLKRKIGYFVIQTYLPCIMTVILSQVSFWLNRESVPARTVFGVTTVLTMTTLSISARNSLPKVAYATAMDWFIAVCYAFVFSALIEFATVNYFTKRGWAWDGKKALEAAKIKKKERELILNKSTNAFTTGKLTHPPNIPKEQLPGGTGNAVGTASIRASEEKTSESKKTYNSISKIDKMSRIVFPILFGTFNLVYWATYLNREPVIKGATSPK
GABA A receptor alpha-5/beta-3/gamma-2, sequence (P63079 whole entry): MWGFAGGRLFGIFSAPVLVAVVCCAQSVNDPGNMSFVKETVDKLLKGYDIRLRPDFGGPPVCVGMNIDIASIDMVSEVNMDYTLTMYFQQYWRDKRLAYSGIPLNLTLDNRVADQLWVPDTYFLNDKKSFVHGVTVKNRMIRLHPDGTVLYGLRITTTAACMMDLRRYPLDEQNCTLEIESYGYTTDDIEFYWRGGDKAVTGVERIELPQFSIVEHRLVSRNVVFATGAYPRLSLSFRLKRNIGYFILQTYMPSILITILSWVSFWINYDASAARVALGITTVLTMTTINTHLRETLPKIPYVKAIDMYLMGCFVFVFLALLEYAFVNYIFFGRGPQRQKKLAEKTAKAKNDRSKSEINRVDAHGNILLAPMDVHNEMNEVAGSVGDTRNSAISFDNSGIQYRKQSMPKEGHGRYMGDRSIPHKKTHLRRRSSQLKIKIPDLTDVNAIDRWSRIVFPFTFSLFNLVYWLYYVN

GABA-A receptor; alpha-1/beta-2/gamma-2 (Rattus norvegicus, UniProt P18508+P62813+P63138), sequence (P18508 whole entry): as the sequence (P18508 whole entry) above
GABA-A receptor; alpha-1/beta-2/gamma-2 (Rattus norvegicus, UniProt P18508+P62813+P63138), sequence (P62813 whole entry): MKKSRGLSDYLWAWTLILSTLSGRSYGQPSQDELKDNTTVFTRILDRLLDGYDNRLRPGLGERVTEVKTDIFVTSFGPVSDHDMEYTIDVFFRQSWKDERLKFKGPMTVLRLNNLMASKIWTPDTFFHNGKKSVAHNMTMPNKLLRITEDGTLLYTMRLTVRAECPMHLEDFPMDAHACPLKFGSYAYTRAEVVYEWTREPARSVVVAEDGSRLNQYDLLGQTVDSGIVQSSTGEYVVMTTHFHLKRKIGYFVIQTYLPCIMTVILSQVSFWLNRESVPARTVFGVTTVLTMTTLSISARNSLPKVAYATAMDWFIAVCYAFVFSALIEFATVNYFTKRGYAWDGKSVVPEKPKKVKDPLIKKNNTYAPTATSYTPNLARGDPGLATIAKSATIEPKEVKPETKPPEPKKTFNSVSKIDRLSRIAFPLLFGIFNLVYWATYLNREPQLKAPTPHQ
GABA-A receptor; alpha-1/beta-2/gamma-2 (Rattus norvegicus, UniProt P18508+P62813+P63138), sequence (P63138 whole entry): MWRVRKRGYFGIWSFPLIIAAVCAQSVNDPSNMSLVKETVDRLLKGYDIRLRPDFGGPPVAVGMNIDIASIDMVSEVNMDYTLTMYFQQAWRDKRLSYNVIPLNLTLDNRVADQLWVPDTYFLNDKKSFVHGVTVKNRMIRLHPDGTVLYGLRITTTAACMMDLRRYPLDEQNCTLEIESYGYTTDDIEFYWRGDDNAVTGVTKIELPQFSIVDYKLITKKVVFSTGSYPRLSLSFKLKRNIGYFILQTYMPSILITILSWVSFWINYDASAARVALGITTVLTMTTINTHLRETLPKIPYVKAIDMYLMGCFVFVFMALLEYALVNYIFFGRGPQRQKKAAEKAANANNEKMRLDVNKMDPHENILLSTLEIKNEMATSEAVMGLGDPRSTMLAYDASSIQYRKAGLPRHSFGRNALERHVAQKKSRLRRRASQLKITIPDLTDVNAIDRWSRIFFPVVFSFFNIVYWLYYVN
Gamma-aminobutyric acid receptor subunit alpha-3/beta-3/gamma-2, sequence (P18508 whole entry): as the sequence (P18508 whole entry) above
Gamma-aminobutyric acid receptor subunit alpha-3/beta-3/gamma-2, sequence (P20236 whole entry): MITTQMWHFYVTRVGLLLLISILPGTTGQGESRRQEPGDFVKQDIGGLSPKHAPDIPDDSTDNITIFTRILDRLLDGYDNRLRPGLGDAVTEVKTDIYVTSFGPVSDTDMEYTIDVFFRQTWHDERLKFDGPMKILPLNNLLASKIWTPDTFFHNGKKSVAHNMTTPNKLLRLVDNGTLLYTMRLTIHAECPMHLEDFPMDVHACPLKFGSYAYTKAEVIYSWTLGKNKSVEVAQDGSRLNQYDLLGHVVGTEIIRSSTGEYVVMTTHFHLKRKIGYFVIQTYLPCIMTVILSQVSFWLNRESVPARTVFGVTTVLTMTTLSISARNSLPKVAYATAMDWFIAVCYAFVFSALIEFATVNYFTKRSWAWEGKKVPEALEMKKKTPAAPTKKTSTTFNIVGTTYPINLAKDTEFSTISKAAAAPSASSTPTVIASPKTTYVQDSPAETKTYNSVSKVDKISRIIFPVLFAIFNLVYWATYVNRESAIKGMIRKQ
Gamma-aminobutyric acid receptor subunit alpha-3/beta-3/gamma-2, sequence (P63079 whole entry): as the sequence (P63079 whole entry) above
Cytochrome P450 3A4, sequence (P08684 whole entry): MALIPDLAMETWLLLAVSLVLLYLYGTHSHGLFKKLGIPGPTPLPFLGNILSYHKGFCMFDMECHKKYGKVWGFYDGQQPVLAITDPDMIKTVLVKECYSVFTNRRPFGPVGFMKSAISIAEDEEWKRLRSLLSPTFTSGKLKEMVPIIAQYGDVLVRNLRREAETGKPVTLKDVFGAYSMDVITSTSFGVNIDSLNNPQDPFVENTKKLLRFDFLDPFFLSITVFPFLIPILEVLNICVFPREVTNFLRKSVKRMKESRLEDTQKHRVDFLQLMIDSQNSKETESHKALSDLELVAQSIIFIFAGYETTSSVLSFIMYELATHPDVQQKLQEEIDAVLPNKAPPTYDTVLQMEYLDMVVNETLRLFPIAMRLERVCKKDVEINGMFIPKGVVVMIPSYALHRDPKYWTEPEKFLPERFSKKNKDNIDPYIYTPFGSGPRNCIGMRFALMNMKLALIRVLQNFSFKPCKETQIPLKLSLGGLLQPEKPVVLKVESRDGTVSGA

SMILES | EC50 [1] [nM] | Emax [2] [%] | other results
CCC[C@@H]1N=C(c2ccccc2)c2cc(Cl)ccc2NC1=S | 238 | 129 | 
CC(C)[C@@H]1N=C(c2cccc(Cl)c2)c2cc(Cl)ccc2NC1=S | 172 | 112 | 
Cc1ccc2c(c1)C(c1ccccc1)=NC(C(C)C)C(=S)N2 (stereo not given) | 62 | 129 | 
CCC1N=C(c2ccccc2)c2cc(N)ccc2NC1=S (stereo not given) | > 10000 |  | 
CC[C@@H]1N=C(c2ccccc2)c2cc(Cl)ccc2NC1=S | 187 | 66 | 
CN1C(=S)CN=C(c2ccccc2)c2cc(Cl)ccc21 [SULAZEPAM] | > 10000 |  | 
S=C1CC(c2ccccc2)=Nc2cc(Cl)ccc2N1 | > 10000 |  | 
CC(C)[C@@H]1N=C(c2cccnc2)c2cc(Cl)ccc2NC1=S | 275 | 112 | 
FC(F)(F)c1ccc2c(c1)C(c1ccccc1)=NCC(=S)N2 | 516 | 92 | 
S=C1Nc2ccc(Cl)cc2C(c2ccccc2)=N[C@H]1CC1CC1 | 251 | 108 | 
CCC[C@]1(C)N=C(c2ccccc2)c2cc(Cl)ccc2NC1=S | 104 |  | 
CC(C)[C@@H]1N=C(c2ccccn2)c2cc(Cl)ccc2NC1=S | 289 | 103 | 
CC(C)(O)C1N=C(c2ccccc2)c2cc(Cl)ccc2NC1=S (racemic) | 1850 | 113 | 
CC(C)C[C@@H]1N=C(c2ccccc2Cl)c2cc(Cl)ccc2NC1=S | > 10000 |  | 
CC(=O)c1ccc2c(c1)C(c1ccccc1)=NC(C)C(=S)N2 (stereo not given) | > 10000 |  | 
Fc1ccccc1C1=NCC(=S)Nc2ccc(I)cc21 | 2150 | 63 | 
CC(C)[C@@H]1N=C(c2ccccc2)c2cc(Cl)ccc2NC1=O | 777 | 90 | EC50 [3]: 57000 nM
CCOC(=O)C1N=C(c2ccccc2)c2cc(Cl)ccc2NC1=S (racemic) | > 10000 |  | 
CC(C)[C@@H]1N=C(C2CCCCC2)c2cc(Cl)ccc2NC1=S | 414 | 75 | 
CC(C)[C@@H]1N=C(c2ccccc2)c2cc(-c3ccccc3)ccc2NC1=S | 1470 | 108 | 
S=C1COC(c2ccccc2)c2cc(Cl)ccc2N1 (stereo not given) | > 10000 |  | 
CC(=O)OC1C=C(c2ccccc2F)c2cc(Cl)ccc2NC1=S (stereo not given) | 649 | 92 | 

SMILES | EC50 [1] [nM] | Emax [2] [%] | other results
FC(F)(F)C[C@@H]1N=C(c2ccccc2)c2cc(Cl)ccc2NC1=S | 311 | 74 | 
CC(C)[C@@H]1N=C(c2ccccc2)c2cc(Cl)ccc2N(C)C1=S | > 10000 |  | EC50 [3]: 73000 nM
CC(C)[C@@H]1N=C(c2ccc(C(F)(F)F)cc2)c2cc(Cl)ccc2NC1=S | > 10000 |  | 
CCCC1=N[C@@H](C(C)C)C(=S)Nc2ccc(Cl)cc21 | > 10000 |  | 
Fc1ccccc1C1=N[C@H](c2ccccc2)C(=S)Nc2ccc(Cl)cc21 | > 10000 |  | 
S=C1Cc2ccccc2-c2cc(Cl)ccc2N1 | > 10000 |  | 
CC(C)[C@@H]1N=C(N2CCCCC2)c2cc(Cl)ccc2NC1=S | > 10000 |  | 
CCC[C@@]1(C)N=C(c2ccccc2)c2cc(Cl)ccc2NC1=S | > 10000 |  | 
CSc1ccc2c(c1)C(c1ccccc1)=NCC(=S)N2 | 870 | 71 | 
CC(C)[C@@H]1N=C(c2ccccc2)c2cc(C(F)(F)F)ccc2NC1=S | 71 | 72 | Activity [4]: Not Active; inhibition (INH) (Cytochrome P450 3A4): Not Active; Stability [5]: Stable; Stability [6]: Stable; Drug metabolism [7]: Metabolite_Detected
O=[N+]([O-])c1ccc2c(c1)C(c1ccccc1)=NCC(=S)N2 | 4480 | 40 | 
Fc1ccccc1C1=CCC(=S)Nc2ccc(Cl)cc21 | 317 | 95 | 
CC(C)[C@@H]1N=C(c2ccccc2)c2cc(Cl)ccc2N=C1N |  |  | Activity [8]: inactive
S=C1Nc2ccc(Cl)cc2C(c2ccccc2)=NC1n1ccnc1 (racemic) | > 10000 |  | 
C[C@@H]1N=C(c2ccccc2)c2cc(Cl)ccc2NC1=S | 103 | 67 | 
Fc1ccccc1C1=N[C@@H](C2CC2)C(=S)Nc2ccc(Cl)cc21 | 165 | 79 | 
COC(C)C1N=C(c2ccccc2)c2cc(Cl)ccc2NC1=S (racemic) | 354 | 98 | 
C[C@@H]1N=C(c2ccccc2)c2ccccc2NC1=S |  |  | EC50 [3]: 68000 nM
CSC1=Nc2ccc(Cl)cc2C(c2ccccc2)=N[C@H]1C(C)C |  |  | Activity [8]: inactive
CNC1=Nc2ccc(Cl)cc2C(c2ccccc2)=N[C@H]1C(C)C |  |  | Activity [8]: inactive
COc1ccc2c(c1)C(c1ccccc1)=N[C@@H](C(C)C)C(=S)N2 | 559 | 105 | 
Fc1ccccc1C1=NCC(=S)Nc2ccc(Cl)cc21 | 317 | 95 | 

SMILES | EC50 [1] [nM] | Emax [2] [%] | other results
CC(C)[C@@H]1N=C(c2ccccc2)c2ccc(Cl)cc2NC1=S | 399 | 117 | 
S=C1CN=C(c2ccccc2)c2cc(Br)ccc2N1 | 962 | 92 | 
CC(C)C1C(=O)N(c2ccccc2)c2cc(Cl)ccc2NC1=S (stereo not given) | 267 | 93 | 
CC(C)[C@@H]1N=C(c2ccccc2)c2cc(OC(F)(F)F)ccc2NC1=S | 232 | 127 | 
CCC1CN(c2ccccc2)c2cc(Cl)ccc2NC1=S (stereo not given) | 50 | 76 | 
CC(C)C[C@@H]1N=C(c2ccccc2)c2cc(Cl)ccc2NC1=S | 317 | 107 | 
CC1N=C(c2ccccc2)c2ccccc2NC1=S (racemic) | 552 | 88 | EC50 [3]: 61 nM
CCOC1N=C(c2ccccc2)c2cc(Cl)ccc2NC1=S (racemic) | > 10000 |  | 
Fc1ccccc1C1=NCc2cnnn2-c2ccc(Cl)cc21 |  |  | Activity [8]: inactive
Fc1ccccc1C1=NCC(=S)Nc2ccccc21 | > 10000 |  | 
CC(C)=C1N=C(c2ccccc2)c2cc(Cl)ccc2NC1=S | > 10000 |  | 
CC1N=C(c2ccccc2)c2cc(C#N)ccc2NC1=S (stereo not given) | > 10000 | 47 | 
S=C1CN=C(c2ccccc2)c2ccccc2N1 | > 10000 |  | 
CC(C)[C@@H]1N=C(c2ccccc2)c2cc(Cl)ccc2NC1=S | 70 | 102 | EC50 [9]: > 24000 nM; EC50 [10]: > 24000 nM; EC50 [11]: > 24000 nM; EC50 [12]: > 24000 nM; EC50 [13]: > 24000 nM; EC50 [14]: > 24000 nM; EC50 [15]: > 24000 nM; EC50 [16]: > 24000 nM
CC(C)[C@H]1N=C(c2ccccc2F)c2cc(Cl)ccc2NC1=S | 420 | 119 | 
Fc1ccccc1C1=N[C@@H](c2ccccc2)C(=S)Nc2ccc(Cl)cc21 | 1470 | 75 | 
SC1=Nc2ccc(Cl)cc2C(c2ccccc2)=NC1 | 180 to 857 | 82 to 92 | 
CC(C)[C@H]1N=C(c2ccccc2)c2cc(Cl)ccc2NC1=S | 521 | 86 | EC50 [3]: 267000 nM
CC(C)C1C(=S)Nc2ccc(Cl)cc2C(c2ccccc2)=[N+]1[O-] (stereo not given) | 349 | 112 | 
Cc1ccc2c(c1)C(c1ccccc1)=NCC(=S)N2 | 3680 | 91 | 
